From patent US12679843B2, “Pyrrolopyrimidine amines as complement inhibitors” (BioCryst Pharmaceuticals, Inc., priority 2020, dated 2026)

biological target: Factor D (Homo sapiens, UniProt P00746); assay: Factor D esterolytic assay (Z-Lys-SBzl thioester substrate, DTNB, 405 nm); type: biochemical; settings: substrate Z-Lys-SBzl 1.29 mM, 100 mM HEPES, 500 mM NaCl, pH 7.5, 10% DMSO, tested a minimum of three times
Summary of the method: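 Run in pH 7.5 HEPES (100 mM) with 500 mM NaCl and 10% DMSO, with compound preincubated at room temperature or not before adding 1.29 mM Z-Lys-SBzl. Free thiol released by Factor D reacts with DTNB, and rate is followed at 405 nm minus 690 nm over 600 s. IC50 derives from rate-based inhibition, minimum three replicates.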

Chain of Factor D (P00746 26-253): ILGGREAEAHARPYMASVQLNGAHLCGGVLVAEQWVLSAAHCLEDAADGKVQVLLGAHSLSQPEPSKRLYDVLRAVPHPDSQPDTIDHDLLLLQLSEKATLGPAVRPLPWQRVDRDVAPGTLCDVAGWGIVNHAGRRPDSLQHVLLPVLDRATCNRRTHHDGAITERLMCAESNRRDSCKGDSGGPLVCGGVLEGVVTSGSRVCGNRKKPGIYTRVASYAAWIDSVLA

Compound	IC50
C[C@@]12C[C@@H](C(=O)Nc3cccc(Br)n3)N(C(=O)Cn3c4ccc(C(F)(F)F)cc4c4c(N)ncnc43)[C@@H]1C2 [Compound 28a, (1R,3S,5R)-2-(2-(4-amino-6-(trifluoromethyl)-9H-pyrimido[4,5-b]indol-9-yl)acetyl)-N-(6-bromopyridin-2-yl)-5-methyl-2-azabicyclo[3.1.0]hexane-3-carboxamide]	< 100 nM
COc1cc(C)c2c(c1)c1c(N)ncnc1n2CC(=O)N1[C@@H]2C[C@@H]2C[C@H]1C(=O)Nc1cccc(Br)n1 [Compound 257g, (1R,3S,5R)-2-(2-(4-amino-6-methoxy-8-methyl-9H-pyrimido[4,5-b]indol-9-yl)acetyl)-N-(6-bromopyridin-2-yl)-2-azabicyclo[3.1.0]hexane-3-carboxamide]	< 100 nM
COc1cc2c(cc1F)c1c(N)ncnc1n2CC(=O)N1[C@H](C(=O)Nc2cccc(Br)n2)C[C@@]2(C)C[C@@H]12 [Compound 388a, (1R,3S,5R)-2-(2-(4-amino-6-fluoro-7-methoxy-9H-pyrimido[4,5-b]indol-9-yl)acetyl)-N-(6-bromopyridin-2-yl)-5-methyl-2-azabicyclo[3.1.0]hexane-3-carboxamide]	< 100 nM
Nc1ncnc2c1c(-c1ccc[nH]1)cn2CC(=O)N1C[C@H](F)C[C@H]1C(=O)NCc1cccc(Cl)c1F [Compound 149b, (2S,4R)-1-(2-(4-amino-5-(1H-pyrrol-2-yl)-7H-pyrrolo[2,3-d]pyrimidin-7-yl)acetyl)-N-(3-chloro-2-fluorobenzyl)-4-fluoropyrrolidine-2-carboxamide]	100 to 1000 nM
Nc1ncnc2c1c1cc(C(=O)NCC3CC3)ccc1n2CC(=O)N1[C@@H]2C[C@@H]2C[C@H]1C(=O)Nc1cccc(Br)n1 [Compound 169f, 4-amino-9-(2-((1R,3S,5R)-3-((6-bromopyridin-2-yl)carbamoyl)-2-azabicyclo[3.1.0]hexan-2-yl)-2-oxoethyl)-N-(cyclopropylmethyl)-9H-pyrimido[4,5-b]indole-6-carboxamide]	< 100 nM
Cc1cc(Br)cc2c3c(N)ncnc3n(CC(=O)N3[C@H](C(=O)Nc4cccc(Br)n4)C[C@@]4(C)C[C@@H]34)c12 [Compound 193a, (1R,3S,5R)-2-(2-(4-amino-6-bromo-8-methyl-9H-pyrimido[4,5-b]indol-9-yl)acetyl)-N-(6-bromopyridin-2-yl)-5-methyl-2-azabicyclo[3.1.0]hexane-3-carboxamide]	< 100 nM
C[C@@]12C[C@@H](C(=O)Nc3cccc(Br)n3)N(C(=O)Cn3c4ncnc(N)c4c4cccc(Br)c43)[C@@H]1C2 [Compound 186a, (1R,3S,5R)-2-(2-(4-amino-8-bromo-9H-pyrimido[4,5-b]indol-9-yl)acetyl)-N-(6-bromopyridin-2-yl)-5-methyl-2-azabicyclo[3.1.0]hexane-3-carboxamide]	< 100 nM
Cc1ccc(Cl)nc1NC(=O)[C@@H]1C[C@@]2(C)C[C@H]2N1C(=O)Cn1c2ncnc(N)c2c2cc(C(F)(F)F)cc(C)c21 [Compound 332c, (1R,3S,5R)-2-(2-(4-amino-8-methyl-6-(trifluoromethyl)-9H-pyrimido[4,5-b]indol-9-yl)acetyl)-N-(6-chloro-3-methylpyridin-2-yl)-5-methyl-2-azabicyclo[3.1.0]hexane-3-carboxamide]	< 100 nM
Cc1cc2c(cc1Br)c1c(N)ncnc1n2CC(=O)N1[C@@H]2C[C@@H]2C[C@H]1C(=O)Nc1cccc(Br)n1 [Compound 379h, (1R,3S,5R)-2-(2-(4-amino-6-bromo-7-methyl-9H-pyrimido[4,5-b]indol-9-yl)acetyl)-N-(6-bromopyridin-2-yl)-2-azabicyclo[3.1.0]hexane-3-carboxamide]	< 100 nM
CO[C@@H]1C[C@@H](C(=O)Nc2cccc(Br)n2)N(C(=O)Cn2c3ccc(C(F)(F)F)cc3c3c(N)ncnc32)C1 [Compound 248d, (2S,4R)-1-(2-(4-amino-6-(trifluoromethyl)-9H-pyrimido[4,5-b]indol-9-yl)acetyl)-N-(6-bromopyridin-2-yl)-4-methoxypyrrolidine-2-carboxamide]	> 1000 nM
Cc1cc(-c2ccoc2)cc2c3c(N)ncnc3n(CC(=O)N3[C@H](C(=O)Nc4cccc(Br)n4)C[C@@]4(C)C[C@@H]34)c12 [Compound 353a, (1R,3S,5R)-2-(2-(4-amino-6-(furan-3-yl)-8-methyl-9H-pyrimido[4,5-b]indol-9-yl)acetyl)-N-(6-bromopyridin-2-yl)-5-methyl-2-azabicyclo[3.1.0]hexane-3-carboxamide]	< 100 nM
NCc1cn(CC(=O)N2C[C@H](F)C[C@H]2C(=O)NCc2cccc(Cl)c2F)c2ncnc(N)c12 [Compound 141a, (2S,4R)-1-(2-(4-amino-5-(aminomethyl)-7H-pyrrolo[2,3-d]pyrimidin-7-yl)acetyl)-N-(3-chloro-2-fluorobenzyl)-4-fluoropyrrolidine-2-carboxamide]	> 1000 nM
C[C@@]1(F)C[C@@H](C(=O)NCc2cccc(Cl)c2F)N(C(=O)Cn2cnc3c(N)ncnc32)C1 [Compound 122c, (2S,4R)-1-(2-(6-amino-9H-purin-9-yl)acetyl)-N-(3-chloro-2-fluorobenzyl)-4-fluoro-4-methylpyrrolidine-2-carboxamide]	100 to 1000 nM
Nc1ncnc2c1cc1n2C(C(=O)N2[C@@H](C(=O)Nc3cccc(Br)n3)C[C@@H]3C[C@@H]32)Oc2ccccc2-1 (stereo partly drawn) [Compound 233h, (1S,3R,5S)-2-(11-amino-6H-benzo[e]pyrimido[5′,4′:4,5]pyrrolo[1,2-c][,3]oxazine-6-carbonyl)-N-(6-bromopyridin-2-yl)-2-azabicyclo[3.1.0]hexane-3-carboxamide]	< 100 nM
Cc1cc(C(F)(F)F)nc2c3c(N)ncnc3n(CC(=O)N3[C@H](C(=O)Nc4cccc(Br)n4)C[C@@]4(C)C[C@@H]34)c12 [Compound 363a, (1R,3S,5R)-2-(2-(4-amino-8-methyl-6-(trifluoromethyl)-9H-pyrido[2′,3′:4,5]pyrrolo[2,3-d]pyrimidin-9-yl)acetyl)-N-(6-bromopyridin-2-yl)-5-methyl-2-azabicyclo[3.1.0]hexane-3-carboxamide]	< 100 nM
Cc1cc(-c2ccc(C(F)(F)F)nc2)cc2c3c(N)ncnc3n(CC(=O)N3[C@H](C(=O)Nc4cccc(Br)n4)C[C@@]4(C)C[C@@H]34)c12 [Compound 357a, (1R,3S,5R)-2-(2-(4-amino-8-methyl-6-(6-(trifluoromethyl)pyridin-3-yl)-9H-pyrimido[4,5-b]indol-9-yl)acetyl)-N-(6-bromopyridin-2-yl)-5-methyl-2-azabicyclo[3.1.0]hexane-3-carboxamide]	< 100 nM

Further lines, results first:

IC50	Compound
< 100 nM	Cc1cc(C)c2c(c1)c1c(N)ncnc1n2CC(=O)N1[C@H](C(=O)Nc2cncc(Br)n2)C[C@@]2(C)C[C@@H]12 [Compound 314a, (1R,3S,5R)-2-(2-(4-amino-6,8-dimethyl-9H-pyrimido[4,5-b]indol-9-yl)acetyl)-N-(6-bromopyrazin-2-yl)-5-methyl-2-azabicyclo[3.1.0]hexane-3-carboxamide]
100 to 1000 nM	Cc1ccc(Br)nc1NC(=O)[C@@H]1C[C@@]2(C)C[C@H]2N1C(=O)Cn1ccc2c(N)ncnc21 [Compound 74a, (1R,3S,5R)-2-(2-(4-amino-7H-pyrrolo[2,3-d]pyrimidin-7-yl)acetyl)-N-(6-bromo-3-methylpyridin-2-yl)-5-methyl-2-azabicyclo[3.1.0]hexane-3-carboxamide]
< 100 nM	Nc1ncnc2c1c(-c1ccc3cc[nH]c3c1)cn2CC(=O)N1C[C@H](F)C[C@H]1C(=O)NCc1cccc(Cl)c1F [Compound 137b, (2S,4R)-1-(2-(4-amino-5-(1H-indol-6-yl)-7H-pyrrolo[2,3-d]pyrimidin-7-yl)acetyl)-N-(3-chloro-2-fluorobenzyl)-4-fluoropyrrolidine-2-carboxamide]
< 100 nM	C[C@@]12C[C@@H](C(=O)Nc3cccc(Br)n3)N(C(=O)Cn3c4cc(C(F)(F)F)ccc4c4c(N)ncnc43)[C@@H]1C2 [Compound 199a, (1R,3S,5R)-2-(2-(4-amino-7-(trifluoromethyl)-9H-pyrimido[4,5-b]indol-9-yl)acetyl)-N-(6-bromopyridin-2-yl)-5-methyl-2-azabicyclo[3.1.0]hexane-3-carboxamide]
< 100 nM	Nc1ncnc2c1c1ccc(Br)cc1n2CC(=O)N1[C@@H]2C[C@@H]2C[C@H]1C(=O)Nc1cccc(Br)n1 [Compound 52f, (1R,3S,5R)-2-(2-(4-amino-7-bromo-9H-pyrimido[4,5-b]indol-9-yl)acetyl)-N-(6-bromopyridin-2-yl)-2-azabicyclo[3.1.0]hexane-3-carboxamide]
100 to 1000 nM	Nc1ncnc2c1ncn2CC(=O)N1[C@@H]2C[C@@H]2C[C@H]1C(=O)NC1CCCC(Cl)(Cl)C1 (stereo partly drawn) [Compound 102b, (1R,3S,5R)-2-(2-(6-amino-9H-purin-9-yl)acetyl)-N-(3,3-dichlorocyclohexyl)-2-azabicyclo[3.1.0]hexane-3-carboxamide]
< 100 nM	Cc1cc(C(F)(F)F)cc2c3c(N)ncnc3n(CC(=O)N3[C@@H]4C[C@@H]4C[C@H]3C(=O)Nc3nc(Cl)ccc3F)c12 [Compound 319c, (1R,3S,5R)-2-(2-(4-amino-8-methyl-6-(trifluoromethyl)-9H-pyrimido[4,5-b]indol-9-yl)acetyl)-N-(6-chloro-3-fluoropyridin-2-yl)-2-azabicyclo[3.1.0]hexane-3-carboxamide]
< 100 nM	Cc1cc(C(F)(F)F)cc2c3c(N)ncnc3n(CC(=O)N3[C@H](C(=O)Nc4cccc(Br)n4)C[C@@]4(C)C[C@@H]34)c12 [Compound 184g, (1R,3S,5R)-2-(2-(4-amino-8-methyl-6-(trifluoromethyl)-9H-pyrimido[4,5-b]indol-9-yl)acetyl)-N-(6-bromopyridin-2-yl)-5-methyl-2-azabicyclo[3.1.0]hexane-3-carboxamide]
< 100 nM	C[C@@]12C[C@@H](C(=O)Nc3cccc(Br)n3)N(C(=O)Cn3c4ccc(-c5ccccc5)nc4c4c(N)ncnc43)[C@@H]1C2 [Compound 299a, (1R,3S,5R)-2-(2-(4-amino-6-phenyl-9H-pyrido[2′,3′:4,5]pyrrolo[2,3-d]pyrimidin-9-yl)acetyl)-N-(6-bromopyridin-2-yl)-5-methyl-2-azabicyclo[3.1.0]hexane-3-carboxamide]
